Patent US10716773B2, “Compositions comprising 15-HEPE and methods of treating or preventing cancer and neurologic disease” (Afimmune Limited, priority 2015, dated 2020)
Several values for one entry are separate records, joined by “and”; a condition that tells them apart may be missing. Equal values may be shown once.

Tested on: caspase-3/7
Assay: Staurosporine-induced caspase-3/7 activity in NHDF, measured in cell lysates with fluorogenic substrate Ac-DEVD-AMC
Format: cell-based, human
Procedure: The potential inhibitory effect of compounds 15(S)-HEPE EE and EPA EE was evaluated on staurosporine-induced caspase activation in normal human dermal fibroblasts (NHDF). […] Normal human dermal fibroblasts (NHDF) were used at the 8th passage. […] Fibroblasts were seeded in 24-well plates and cultured for 24 hours in culture medium. The medium was then removed and replaced by assay medium containing or not (control) the test compounds and cells were pre-incubated for 24 hours. […] The cells were then incubated for 24 hours. Non-stimulated controls (without inducer) were performed in parallel. All experimental conditions were performed in n=3. […] Enzyme activity assay and protein quantification assay were performed in separated plates due to the fact that DTT used in the lysis buffer for caspase activity interferes with protein quantification. […] Lysis buffer: HEPES buffer (pH 7.4) containing EDTA, Triton X-100, NP-40 and DTT Assay Buffer: HEPES buffer (pH 7.4) containing NaCl, EDTA, NP-40, glycerol and DTT Substrate: Ac-DEVD-AMC, tested at 10 μM (stock solution at 1.5 mM in DMSO) Reference inhibitor: […] Ac-DEVD-AMC is a synthetic tetrapeptide fluorogenic substrate for caspase-3 and caspase-7 and contains the amino acid sequence of the PARP cleavage site at […]. […] Enzymes cleave the tetrapeptide between D and AMC resulting in the release of fluorogenic AMC, which can be quantified with a spectrofluorometer. […] In parallel, an additional control (assay buffer containing the substrate) was also performed to determine the background signal. At the end of incubation, the fluorescence intensity emitted by the reaction product (cleaved Ac-DEVD-AMC) was measured at wavelengths λex 380 nm and λem 440 nm using a spectrofluorimeter (SPECTRAmax® Gemini, Molecular Devices).

[1] = 0.1 μm, inhibitor added in the reaction mix of stimulated control lysate
[2] = 0.1 μm, inhibitor added in the reaction mix of stimulated control lysate, single replicates, listed as Ao-DEVO-CHO

Compound | increase of caspase-3/7 activity normalized versus protein quantity, staurosporine-stimulated versus non-stimulated conditions (staurosporine 100 nM, NHDF) | inhibition of staurosporine-stimulated caspase-3/7 activity (in words) (0.1 μM, added in the reaction mix) | % inhibition [1] | % stimulated control [1] | Normalized data: Mean (caspase-3/7 activity/proteins) [1] | Caspase-3/7 activity (Fluorescence 380 nm/440 nm) [2] | Caspase-3/7 activity - Background (Fluorescence 380 nm/440 nm) [2] | Caspese-3/7 activity/proteins [2]
CN[C@@H]1C[C@H]2O[C@@](C)([C@@H]1OC)n1c3ccccc3c3c4c(c5c6ccccc6n2c5c31)C(=O)NC4 [staurosporine] | 10 fold | – | – | – | – | – | – | –
Ac-DEVD-CHO | – | fully inhibited | 109% | 1% | 954 AU/mg | 347 AU and 343 AU and 339 AU | 17 AU and 13 AU and 10 AU | 1254 AU/mg and 934 AU/mg and 674 AU/mg
